# Where two headings read alike, the source gives them in different places.
# Assays:
# [1] = parameters: method as in Investigator's Brochure (IB) 12; conditions: ref Investigator's Brochure (IB) 12, cited from earlier work
# [2] = tested on: KYSE510 human esophageal cancer xenograft; parameters: method as in Investigator's Brochure (IB) 12; conditions: 12.5 mg/kg oral for 21 days; ref Investigator's Brochure (IB) 12; cited from earlier work
# SD rats [3] = experiment: Long-term toxicity assay, SD rats; format: in vivo; conditions: 3 mg/kg x 0.162 x 60 kg
# Description: Shanghai Haihe Biopharma Co., Ltd. Protocol No.: CYH33-101, Version: 5.0 […]
# in hepatocytes was sign ificantly higher in dogs than in other species. The extent of hydrolytic metabolism of amide bonds in monk ey hepatocytes was low, but the extent of oxidative metabolism (M5, M6) was higher than that in other animal species. Oxidative metabolites of CYH33 were not detected in hum an hepatocytes, so th e metabolic effect of oxidative metabolic enzymes in human liver on C YH33 was not evaluated. The liver and intestine homogenates of dogs were collected, confirming that the amide hydrolysis of CYH33 was mainly catalyzed by carboxylesterase in liver. […]
# transport across Caco-2 cells in the concentration range of 2.00 - 10.0 µM.
# For detailed results of nonclinical pharmacokinetic and product metabol ism studies of […]
# 1.2.3 Results of Nonclinical Toxicological Study […]
# tidal volume (TV), respiratory volume (MV) per minute and frequency of respiration (Rf) […]
# on the central n ervous system (CNS) noticed.
# The acute toxicity assay confirmed that the MTD was ≥ 600 mg/kg in SD rats, and the maximum tolerated dose (MTD) was >120 mg/kg in beagle dogs. The long-term toxicity […]
# were greater than those in males, and the highest non-severely toxic dose (HNSTD) was 8 mg/kg in males and 3 mg/kg in females. […]
# SD rats [4] = tested on: SD rats; parameters: method as in Investigator's Brochure (IB) 12; conditions: long-term, ref Investigator's Brochure (IB) 12, cited from earlier work
# [5] = tested on: EC104 esophageal cancer PDX; parameters: method as in Investigator's Brochure (IB) 12; conditions: 12.5 mg/kg oral for 21 days; ref Investigator's Brochure (IB) 12; cited from earlier work
smiles,measurement,setting,value
"COC(=O)Nc1cc(C(F)(F)F)c(-c2nc(N3CCOCC3)c3cc(CN4CCN(S(C)(=O)=O)CC4)cn3n2)cn1 [CYH33, methyl (5-(6-((4-(methylsulfonyl)piperazin-1-yl)methyl)−4-morpholinopyrrolo[2,1-f][1,2,4]triazin-2-yl)−4-(trifluoromethyl)pyridin-2-yl)carbamate]",exposure in tissues relative to plasma,"[1]; liver, adrenal gland, digestive tract, pancreas, kidney, spleen, ovaries",more than 4 times
same,concentration of parent drug at 72 h after administration relative to peak concentration,[1],0.5%
same,distribution into the red blood cells,[1],basically not distributed
same,exposure in brain tissue relative to plasma,[1],approximately 20%
same,"exposure in tissues, female rats relative to male rats (higher)",[1],7 - 18 fold
same,T/C ratio,[2],approximately 30%
same,"human equivalent dose (HED) of long-term HNSTD of rats (females), critical toxic dose",SD rats [3],about 30 mg
same,highest non-severely toxic dose (HNSTD),SD rats [4]; female SD rats,3 mg/kg
same,highest non-severely toxic dose (HNSTD),SD rats [4]; male SD rats,8 mg/kg
same,T/C ratio,[5],approximately 30%
